According to patent US20210070748A1, “INHIBITORS OF BRUTONS TYROSINE KINASE” (Pharmacyclics LLC, priority 2015, published 2021):

Assays:
BTK-WT = target: T1, BTK-WT (Homo sapiens, UniProt Q06187); experiment: Btk in vitro inhibitory activity (one of Method A TR-FRET, Method B electrophoretic mobility shift, Method C radiometric filter binding); type: biochemical; details: D-compounds panel data; read-out: IC50 BTK-WT
T1 construct: purified from insect cells as a full-length construct containing an N-terminal 6X-His tag; His6 (N); made in house; host or cells: insect cells (baculovirus Sf21 in Method B)

LCK = LCK (Homo sapiens, UniProt P06239); experiment: Inhibition of a panel of kinases, in vitro HotSpot kinase assay: LCK; type: biochemical; details: D-compounds panel data; 1 μM ATP; read-out: IC50 LCK
Sequence of LCK (P06239 whole entry): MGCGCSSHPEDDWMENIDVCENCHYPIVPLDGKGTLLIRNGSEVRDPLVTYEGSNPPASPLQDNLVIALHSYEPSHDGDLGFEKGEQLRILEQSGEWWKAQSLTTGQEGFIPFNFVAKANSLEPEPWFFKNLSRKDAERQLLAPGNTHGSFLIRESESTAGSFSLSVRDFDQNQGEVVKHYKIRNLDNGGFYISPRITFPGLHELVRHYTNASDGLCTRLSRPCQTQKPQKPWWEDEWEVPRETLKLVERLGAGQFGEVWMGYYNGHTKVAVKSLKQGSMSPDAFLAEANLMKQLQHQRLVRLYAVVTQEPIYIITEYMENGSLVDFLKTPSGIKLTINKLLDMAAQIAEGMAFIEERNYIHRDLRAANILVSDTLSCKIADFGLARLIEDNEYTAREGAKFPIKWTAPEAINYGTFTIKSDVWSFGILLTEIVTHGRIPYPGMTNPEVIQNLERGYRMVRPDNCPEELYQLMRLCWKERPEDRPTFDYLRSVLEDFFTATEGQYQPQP

T1 sequence (Q06187 whole entry): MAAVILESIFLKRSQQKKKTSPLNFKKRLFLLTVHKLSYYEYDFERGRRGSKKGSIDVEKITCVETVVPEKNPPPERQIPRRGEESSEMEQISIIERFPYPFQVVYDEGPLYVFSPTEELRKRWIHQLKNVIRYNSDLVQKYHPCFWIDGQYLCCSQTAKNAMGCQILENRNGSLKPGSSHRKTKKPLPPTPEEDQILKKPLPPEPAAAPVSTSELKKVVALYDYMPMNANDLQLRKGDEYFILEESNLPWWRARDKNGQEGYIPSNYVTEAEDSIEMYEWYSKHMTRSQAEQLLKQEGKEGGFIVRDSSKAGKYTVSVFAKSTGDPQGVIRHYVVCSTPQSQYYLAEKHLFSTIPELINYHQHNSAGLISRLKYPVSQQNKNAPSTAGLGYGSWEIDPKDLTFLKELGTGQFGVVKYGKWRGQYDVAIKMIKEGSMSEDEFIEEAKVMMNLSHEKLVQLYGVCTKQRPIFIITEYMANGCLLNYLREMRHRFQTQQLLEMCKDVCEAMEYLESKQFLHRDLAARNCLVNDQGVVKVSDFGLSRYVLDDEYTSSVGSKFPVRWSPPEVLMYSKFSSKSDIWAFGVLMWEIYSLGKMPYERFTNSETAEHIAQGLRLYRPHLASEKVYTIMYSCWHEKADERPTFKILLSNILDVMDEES

SMILES | IC50 (BTK-WT) | IC50 (LCK)
C[C@@H]1[C@H](NC(=O)c2ccc(C3CC3)cc2)CCCN1c1cnc(C(N)=O)c(Nc2cnn(CC(C)(C)O)c2)n1 [Example D-215, 5-[(2R,3R)-3-(4-cyclopropylbenzamido)-2-methylpiperidin-1-yl]-3-{[1-(2-hydroxy-2-methylpropyl)-1H-pyrazol-4-yl]amino}pyrazine-2-carboxamide] | ≤ 10 nM | 1000 to 10000 nM
C[C@@H]1[C@H](NC(=O)c2ccc3c(c2)OC(F)(F)O3)CCCN1c1cnc(C(N)=O)c(Nc2cnn(C)c2)n1 [Example D-216, 5-[(2R,3R)-3-(2,2-difluoro-2H-1,3-benzodioxole-5-amido)-2-methylpiperidin-1-yl]-3-[(1-methyl-1H-pyrazol-4-yl)amino]pyrazine-2-carboxamide] | ≤ 10 nM | 100 to 1000 nM
C[C@@H]1[C@H](NC(=O)c2ccc(N(C)CCO)cc2)CCCN1c1cnc(C(N)=O)c(Nc2cnn(C)c2)n1 [Example D-217, 5-[(2R,3R)-3-{4-[(2-hydroxyethyl)(methyl)amino]benzamido}-2-methylpiperidin-1-yl]-3-[(1-methyl-1H-pyrazol-4-yl)amino]pyrazine-2-carboxamide] | ≤ 10 nM | 100 to 1000 nM
CCN(CC)c1ccc(C(=O)N[C@@H]2CCCN(c3cnc(C(N)=O)c(Nc4cnn(C)c4)n3)[C@@H]2C)cc1 [Example D-218, 5-[(2R,3R)-3-[4-(diethylamino)benzamido]-2-methylpiperidin-1-yl]-3-[(1-methyl-1H-pyrazol-4-yl)amino]pyrazine-2-carboxamide] | ≤ 10 nM | 100 to 1000 nM
C[C@@H]1[C@H](NC(=O)c2ccc(OC3CC3)cc2)CCCN1c1cnc(C(N)=O)c(Nc2cnn(C)c2)n1 [Example D-219, 5-[(2R,3R)-3-(4-cyclopropoxybenzamido)-2-methylpiperidin-1-yl]-3-[(1-methyl-1H-pyrazol-4-yl)amino]pyrazine-2-carboxamide] | ≤ 10 nM | 10 to 100 nM
CC(C)c1ccc(S(=O)(=O)N[C@@H]2CCCN(c3cnc(C(N)=O)c(Nc4cnn(C)c4)n3)[C@@H]2C)cc1 [Example D-220, 3-[(1-methyl-1H-pyrazol-4-yl)amino]-5-[(2R,3R)-2-methyl-3-[4-(propan-2-yl)benzenesulfonamido]piperidin-1-yl]pyrazine-2-carboxamide] | 1000 to 10000 nM | > 10000 nM
C[C@@H]1[C@H](NC(=O)c2ccc(C3(C(F)(F)F)CC3)cc2)CCCN1c1cnc(C(N)=O)c(Nc2cnn(C)c2)n1 [Example D-221, 3-[(1-Methyl-1H-pyrazol-4-yl)amino]-5-[(2R,3R)-2-methyl-3-{4-[1-(trifluoromethyl)cyclopropyl]benzamido}piperidin-1-yl]pyrazine-2-carboxamide] | ≤ 10 nM | 100 to 1000 nM
CC(C)c1ccc(C(=O)N[C@@H]2CCCN(c3cnc(C(N)=O)c(Nc4cnn(C)c4)n3)C2)cc1 [Example D-222, 3-[(1-Methyl-1H-pyrazol-4-yl)amino]-5-[(3R)-3-[4-(propan-2-yl)benzamido]piperidin-1-yl]pyrazine-2-carboxamide] | ≤ 10 nM | 1000 to 10000 nM
C[C@@H]1[C@H](NC(=O)c2ccc(C(C)(C)C)cc2F)CCCN1c1cnc(C(N)=O)c(Nc2cnn(C)c2)n1 [Example D-223, 5-[(2R,3R)-3-(4-tert-butyl-2-fluorobenzamido)-2-methylpiperidin-1-yl]-3-[(1-methyl-1H-pyrazol-4-yl)amino]pyrazine-2-carboxamide] | ≤ 10 nM | 100 to 1000 nM
C[C@@H]1[C@H](NC(=O)c2ccc3c(c2)OCCO3)CCCN1c1cnc(C(N)=O)c(Nc2cnn(C)c2)n1 [Example D-224, 5-[(2R,3R)-3-(2,3-dihydro-1,4-benzodioxine-6-amido)-2-methylpiperidin-1-yl]-3-[(1-methyl-1H-pyrazol-4-yl)amino]pyrazine-2-carboxamide] | ≤ 10 nM | 100 to 1000 nM
Cn1cc(Nc2nc(N3CCC[C@@H](n4ccc5cc(C6CC6)ncc5c4=O)C3)cnc2C(N)=O)cn1 [Example D-225, 5-[(3R)-3-(6-cyclopropyl-1-oxo-1,2-dihydro-2,7-naphthyridin-2-yl)piperidin-1-yl]-3-[(1-methyl-1H-pyrazol-4-yl)amino]pyrazine-2-carboxamide] | ≤ 10 nM | 100 to 1000 nM
C[C@@H]1[C@H](NC(=O)c2ccc3scnc3c2)CCCN1c1cnc(C(N)=O)c(Nc2ccc(N3CCN(C)CC3)cc2)n1 [Example D-226, N-[(2R,3R)-1-(5-carbamoyl-6-{[4-(4-methylpiperazin-1-yl)phenyl]amino}pyrazin-2-yl)-2-methylpiperidin-3-yl]-1,3-benzothiazole-5-carboxamide] | ≤ 10 nM | 10 to 100 nM
C[C@@H]1[C@H](NC(=O)c2ccc(S(C)(=O)=O)cc2)CCCN1c1cnc(C(N)=O)c(Nc2ccc(N3CCN(C)CC3)cc2)n1 [Example D-227, 5-[(2R,3R)-3-(4-methanesulfonylbenzamido)-2-methylpiperidin-1-yl]-3-{[4-(4-methylpiperazin-1-yl)phenyl]amino}pyrazine-2-carboxamide] | ≤ 10 nM | 10 to 100 nM
C[C@@H]1[C@H](NC(=O)c2ccc(C3(C)COC3)cc2)CCCN1c1cnc(C(N)=O)c(Nc2cnn(C)c2)n1 [Example D-228, 3-[(1-methyl-1H-pyrazol-4-yl)amino]-5-[(2R,3R)-2-methyl-3-[4-(3-methyloxetan-3-yl)benzamido]piperidin-1-yl]pyrazine-2-carboxamide] | ≤ 10 nM | 100 to 1000 nM
C[C@@H]1[C@H](NC(=O)c2ccc(C(C)(C)C)s2)CCCN1c1cnc(C(N)=O)c(Nc2cnn(C)c2)n1 [Example D-229, 5-[(2R,3R)-3-(5-tert-butylthiophene-2-amido)-2-methylpiperidin-1-yl]-3-[(1-methyl-1H-pyrazol-4-yl)amino]pyrazine-2-carboxamide] | ≤ 10 nM | 10 to 100 nM
C[C@@H]1[C@H](NC(=O)c2ccc(S(F)(F)(F)(F)F)cc2)CCCN1c1cnc(C(N)=O)c(Nc2cnn(C)c2)n1 [Example D-230, 3-[(1-methyl-1H-pyrazol-4-yl)amino]-5-[(2R,3R)-2-methyl-3-[4-(pentafluoro-λ^6-sulfanyl)benzamido]piperidin-1-yl]pyrazine-2-carboxamide] | ≤ 10 nM | 100 to 1000 nM
COc1cc(C(=O)N[C@@H]2CCCN(c3cnc(C(N)=O)c(Nc4cnn(C)c4)n3)[C@@H]2C)ccc1C1CC1 [Example D-231, 5-[(2R,3R)-3-(4-cyclopropyl-3-methoxybenzamido)-2-methylpiperidin-1-yl]-3-[(1-methyl-1H-pyrazol-4-yl)amino]pyrazine-2-carboxamide] | ≤ 10 nM | 100 to 1000 nM
Cc1ccc(C(=O)N[C@@H]2CCCN(c3cnc(C(N)=O)c(Nc4cnn(C)c4)n3)[C@@H]2C)cc1 [Example D-232, 3-[(1-methyl-1H-pyrazol-4-yl)amino]-5-[(2R,3R)-2-methyl-3-(4-methylbenzamido)piperidin-1-yl]pyrazine-2-carboxamide] | ≤ 10 nM | 10 to 100 nM
C[C@@H]1[C@H](NC(=O)c2ccc(SC(F)(F)F)cc2)CCCN1c1cnc(C(N)=O)c(Nc2ccc(N3CCN(C)CC3)cc2)n1 [Example D-233, 5-[(2R,3R)-2-methyl-3-{4-[(trifluoromethyl)sulfanyl]benzamido}piperidin-1-yl]-3-{[4-(4-methylpiperazin-1-yl)phenyl]amino}pyrazine-2-carboxamide] | ≤ 10 nM | 100 to 1000 nM
C[C@@H]1[C@H](NC(=O)c2ccc3c(cnn3C)c2)CCCN1c1cnc(C(N)=O)c(Nc2ccc(N3CCN(C)CC3)cc2)n1 [Example D-234, N-[(2R,3R)-1-(5-carbamoyl-6-{[4-(4-methylpiperazin-1-yl)phenyl]amino}pyrazin-2-yl)-2-methylpiperidin-3-yl]-1-methyl-1H-indazole-5-carboxamide] | ≤ 10 nM | 10 to 100 nM
C[C@@H]1[C@H](NC(=O)c2ccc(C3(O)CC3)cc2)CCCN1c1cnc(C(N)=O)c(Nc2cnn(C)c2)n1 [Example D-235, 5-[(2R,3R)-3-[4-(1-hydroxycyclopropyl)benzamido]-2-methylpiperidin-1-yl]-3-[(1-methyl-1H-pyrazol-4-yl)amino]pyrazine-2-carboxamide] | ≤ 10 nM | 100 to 1000 nM
C[C@H]1CC[C@@H](NC(=O)c2ccc(C(C)(C)O)cc2)CN1c1cnc(C(N)=O)c(Nc2cnn(C)c2)n1 [Example D-236, 5-[(2S,5R)-5-[4-(2-hydroxypropan-2-yl)benzamido]-2-methylpiperidin-1-yl]-3-[(1-methyl-1H-pyrazol-4-yl)amino]pyrazine-2-carboxamide] | ≤ 10 nM | 10 to 100 nM
C[C@@H]1[C@H](NC(=O)c2ccc3scnc3c2)CCCN1c1cnc(C(N)=O)c(Nc2cnn(C)c2)n1 [Example D-237, N-[(2R,3R)-1-{5-carbamoyl-6-[(1-methyl-1H-pyrazol-4-yl)amino]pyrazin-2-yl}-2-methylpiperidin-3-yl]-1,3-benzothiazole-5-carboxamide] | ≤ 10 nM | 10 to 100 nM
Cc1nc2cc(C(=O)N[C@@H]3CCCN(c4cnc(C(N)=O)c(Nc5cnn(C)c5)n4)[C@@H]3C)ccc2o1 [Example D-238, N-[(2R,3R)-1-{5-carbamoyl-6-[(1-methyl-1H-pyrazol-4-yl)amino]pyrazin-2-yl}-2-methylpiperidin-3-yl]-2-methyl-1,3-benzoxazole-5-carboxamide] | ≤ 10 nM | 10 to 100 nM
C[C@@H]1[C@H](NC(=O)c2cnc(C(C)(C)C)s2)CCCN1c1cnc(C(N)=O)c(Nc2cnn(C)c2)n1 [Example D-239, 5-[(2R,3R)-3-(2-tert-butyl-1,3-thiazole-5-amido)-2-methylpiperidin-1-yl]-3-[(1-methyl-1H-pyrazol-4-yl)amino]pyrazine-2-carboxamide] | ≤ 10 nM | 10 to 100 nM
